Experimental data as given in ChEMBL document CHEMBL1154973 (Bioorg Med Chem Lett, 2010).

Key:
[1] = biological target: Butyrylcholinesterase (Rattus norvegicus, UniProt Q9JKC1); assay: Inhibition of rat plasma BChE by Ellman's method; type: cell-free
[2] = biological target: T1, Acetylcholinesterase (Rattus norvegicus, UniProt P37136); assay: Inhibition of rat brain AChE by Ellman's method
T1 sequence (P37136 whole entry): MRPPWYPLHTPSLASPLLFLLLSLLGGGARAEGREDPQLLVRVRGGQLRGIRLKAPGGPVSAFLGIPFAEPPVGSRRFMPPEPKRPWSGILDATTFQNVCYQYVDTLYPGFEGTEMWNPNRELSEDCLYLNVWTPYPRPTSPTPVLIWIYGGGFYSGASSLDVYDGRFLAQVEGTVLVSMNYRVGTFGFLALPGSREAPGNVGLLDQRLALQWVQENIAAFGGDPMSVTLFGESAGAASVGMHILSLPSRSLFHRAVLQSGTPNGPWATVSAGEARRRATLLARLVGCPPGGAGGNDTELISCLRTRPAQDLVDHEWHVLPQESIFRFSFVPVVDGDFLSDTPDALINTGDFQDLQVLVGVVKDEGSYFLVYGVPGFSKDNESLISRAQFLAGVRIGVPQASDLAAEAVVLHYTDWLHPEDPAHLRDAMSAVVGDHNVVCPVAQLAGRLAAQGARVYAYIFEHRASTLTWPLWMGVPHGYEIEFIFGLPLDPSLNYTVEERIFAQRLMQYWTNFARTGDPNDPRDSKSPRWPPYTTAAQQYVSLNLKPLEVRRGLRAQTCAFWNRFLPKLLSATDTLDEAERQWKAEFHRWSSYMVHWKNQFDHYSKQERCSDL

[3] = biological target: T2, Acetylcholinesterase and butyrylcholinesterase (AChE and BChE) (Rattus norvegicus) (UniProt P37136+Q9JKC1); assay: Selectivity ratio of IC50 for rat brain AChE to IC50 rat plasma BChE; type: cell-free
T2 sequence (Q9JKC1 1-597, one chain of several): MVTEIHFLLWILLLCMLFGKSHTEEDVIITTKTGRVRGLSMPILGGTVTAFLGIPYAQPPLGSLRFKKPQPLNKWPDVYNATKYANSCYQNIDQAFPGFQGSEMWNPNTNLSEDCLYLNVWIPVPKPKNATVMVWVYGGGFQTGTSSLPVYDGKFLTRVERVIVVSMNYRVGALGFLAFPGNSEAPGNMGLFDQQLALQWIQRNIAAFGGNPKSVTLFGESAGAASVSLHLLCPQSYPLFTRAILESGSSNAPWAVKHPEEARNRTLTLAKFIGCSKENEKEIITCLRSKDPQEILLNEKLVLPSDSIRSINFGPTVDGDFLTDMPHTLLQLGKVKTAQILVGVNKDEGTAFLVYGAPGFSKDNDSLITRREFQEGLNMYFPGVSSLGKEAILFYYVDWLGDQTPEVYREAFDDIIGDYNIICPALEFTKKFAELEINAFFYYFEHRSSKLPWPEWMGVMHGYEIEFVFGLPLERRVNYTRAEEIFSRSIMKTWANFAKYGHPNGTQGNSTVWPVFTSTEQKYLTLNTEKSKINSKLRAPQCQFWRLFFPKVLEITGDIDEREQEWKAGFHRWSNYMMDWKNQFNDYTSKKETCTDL

[4] = biological target: T2, Acetylcholinesterase and butyrylcholinesterase (AChE and BChE) (Rattus norvegicus); assay: Selectivity ratio of IC50 for rat plasma BChE to IC50 for rat brain AChE; type: cell-free

Butyrylcholinesterase, sequence (Q9JKC1 whole entry): as the sequence (Q9JKC1 1-597, one chain of several) above

SMILES	IC50 [1] [nM]	IC50 [2] [nM]	Ratio IC50 [3]	Ratio IC50 [4]
CN1CC[C@@]2(C)c3cc(OC(=O)Nc4ccc(Cl)cc4)ccc3N(C)[C@@H]12	61.3	914	15	–
CN1CC[C@@]2(C)c3cc(OC(=O)NC4CCCCC4)ccc3N(C)[C@@H]12	1400	8.5	–	174
CNC(=O)Oc1ccc2c(c1)[C@]1(C)CCN(C)[C@@H]1N2C [PHYSOSTIGMINE]	7.6	–	–	–
CN1CC[C@@]2(C)c3cc(OC(=O)Nc4ccc(Br)cc4)ccc3N(C)[C@@H]12	14.9	168	7	–
CN1CC[C@@]2(C)c3cc(OC(=O)Nc4cccc(C#N)c4)ccc3N(C)[C@@H]12	1020	442	–	4
CN1CC[C@@]2(C)c3cc(OC(=O)Nc4cccc(Cl)c4)ccc3N(C)[C@@H]12	105	38.7	–	3
CN1CC[C@@]2(C)c3cc(OC(=O)Nc4cccc(Cl)c4Cl)ccc3N(C)[C@@H]12	517	66.2	–	8
CN1CC[C@@]2(C)c3cc(OC(=O)Nc4cccc5ccccc45)ccc3N(C)[C@@H]12	14.1	4.2	–	3
COc1ccc(NC(=O)Oc2ccc3c(c2)[C@]2(C)CCN(C)[C@@H]2N3C)cc1	5.8	29.9	5	–
Cc1ccc(NC(=O)Oc2ccc3c(c2)[C@]2(C)CCN(C)[C@@H]2N3C)cc1Cl	8.5	7.3	–	–
CN1CC[C@@]2(C)c3cc(OC(=O)Nc4cc(Cl)cc(Cl)c4)ccc3N(C)[C@@H]12	935	113	–	8
CN1CC[C@@]2(C)c3cc(OC(=O)Nc4ccccc4Cl)ccc3N(C)[C@@H]12	88.7	264	3	–
CC(C)c1cccc(C(C)C)c1NC(=O)Oc1ccc2c(c1)[C@]1(C)CCN(C)[C@@H]1N2C	830	735	–	–
CN1CC[C@@]2(C)c3cc(OC(=O)Nc4ccccc4Br)ccc3N(C)[C@@H]12	39.6	66.5	–	–
CN1CC[C@@]2(C)c3cc(OC(=O)Nc4ccccc4)ccc3N(C)[C@@H]12 [PHENSERINE]	104	11.9	–	10
Cc1c(Cl)cccc1NC(=O)Oc1ccc2c(c1)[C@]1(C)CCN(C)[C@@H]1N2C	113	6.4	–	18
